Laboratory results reported in patent US20250145642A1, “BICYCLIC HETEROARENES AND METHODS OF THEIR USE” (Kineta, Inc., priority 2021, published 2025).
Where two headings read alike, the source gives them in different places.

Tests used:
[1] = biological target: PIKfyve (PIKFYVE-NanoLuc fusion in HEK293 cells) (Homo sapiens (Human), UniProt Q9Y2I7); experiment: NanoBRET TE Intracellular Kinase Assay, K-8 (Promega) cell-based assay; conditions: transfected HEK293 cells, 2 hours, read-out: hPIKfyve BRET IC50
Protocol: NanoBRET™ TE Intracellular Kinase Assay, K-8 (Promega) Cell-Based Assay. Intracellular inhibition of PIKfyve was assayed using Promega's NanoBRET™ TE Intracellular Kinase Assay, K-8 according to manufacturer's instructions. A dilution series of test compounds was added for 2 hours to HEK293 cells transfected for a minimum of 20 hours with PIKFYVE-NanoLuc® Fusion Vector (Promega) containing a full-length PIKfyve according to manufacturer's specifications in a 96-well plate. Kinase activity was detected by addition of a NanoBRET™ tracer reagent, which was a proprietary PIKfyve inhibitor appended to a fluorescent probe (BRET, bioluminescence resonance energy transfer). Test compounds were tested at concentrations of 10, 3, 1, 0.3, 0.1, 0.03, 0.01, 0.003 μM. BRET signals were measured by a GloMax®Discover Multimode Microplate Reader (Promega) using 0.3 sec/well integration time, 450 BP donor filter and 600 LP acceptor filters. Active test compounds that bound PIKfyve and displaced the tracer reduced BRET signal. IC50 values were then calculated by fitting the data to the normalized BRET ratio.

[2] = biological target: full-length human PIKFYVE (N-terminal GST-fusion) (Homo sapiens (Human), UniProt Q9Y2I7, L932S/Q1183K/Q995L/S1033A/S696N/T998S); experiment: PIKfyve biochemical assay (ADP-Glo Kinase assay, Carna Biosciences)
In short: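 Baculovirus-expressed, glutathione-purified GST-tagged full-length human PIKFYVE (S696N/L932S/Q995L/T998S/S1033A/Q1183K) reacted with substrate and ATP in 50 mM MOPS, 1 mM DTT, pH 7.2, 1 h at room temperature. ADP formed read by ADP-Glo luminescence.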

[3] = system: PIKFYVE TDP-43 yeast strain; experiment: Propidium iodide viability assay, PIKFYVE TDP-43 yeast strain; format: cell-based; conditions: PIKFYVE TDP-43 yeast model
Description: (§1) Generation of TDP-43 yeast model expressing human PIKfyve. Human PIKFYVE (“entry clone”) was cloned into pAG416GPDccdB (“destination vector”) according to standard Gateway cloning protocols (Invitrogen, Life Technologies). The resulting pAG416GPD-PIKFYVE plasmids were amplified in E. coli and plasmid identity confirmed by restriction digest and Sanger sequencing. Lithium acetate/polyethylene glycol-based transformation was used to introduce the above PIKFYVE plasmid into a BY4741 yeast strain auxotrophic for the ura3 gene and deleted for two transcription factors that regulate the xenobiotic efflux pumps, a major efflux pump, and FAB1, the yeast ortholog of PIKFYVE (MATa, snq2::KILeu2; pdr3::KIura3;pdr1::NATMX; fab1::G418^R, his 3;leu2;ura3;met15;LYS2+) (FIG. 2). Transformed yeast were plated on solid agar plates with complete synthetic media lacking uracil (CSM-ura) and containing 2% glucose. Individual colonies harboring the control or PIKFYVE TDP-43 plasmids were recovered. A plasmid containing wild-type TDP-43 under the transcriptional control of the GAL1 promoter and containing the hygromycin-resistance gene as a selectable marker was transformed into the fab1::G418^R pAG416GPD-PIKFYVE yeast strain (FIG. 1). Transformed yeast were plated on CSM-ura containing 2% glucose and […] G418 after overnight recovery in media lacking antibiotic. Multiple independent isolates were further evaluated for cytotoxicity and TDP-43 expression levels.
(§2) Viability Assay. A control yeast strain with the wild-type yeast FAB1 gene and TDP-43 (“FAB1 TDP-43”, carries empty pAG416 plasmid), and the “PIKFYVE TDP-43” yeast strain, were assessed for toxicity using a propidium iodide viability assay. Both yeast strains were transferred from solid CSM-ura/2% glucose agar plates into 3 mL of liquid CSM-ura/2% glucose media for 6-8 hours at 30° C. with aeration. Yeast cultures were then diluted to an optical density at 600 nm wavelength (OD600) of 0.005 in 3 mL of CSM-ura/2% raffinose and grown overnight at 30° C. with aeration to an OD600 of 0.3-0.8. Log-phase overnight cultures were diluted to OD600 of 0.005 in CSM-ura containing either 2% raffinose or galactose and 150 μL dispensed into each well of a flat bottom 96-well plates. Compounds formulated in 100% dimethyl sulfoxide (DMSO) were serially diluted in DMSO and 1.5 μL diluted compound transferred to the 96-well plates using a multichannel pipet. Wells containing DMSO alone were also evaluated as controls for compound effects. Tested concentrations ranged from 15 μM to 0.11 μM. Cultures were immediately mixed to ensure compound distribution and covered plates incubated at 30° C. for 24 hours in a stationary, humified incubator.
(§3) Upon the completion of incubation, cultures were assayed for viability using propidium iodide (PI) to stain for dead/dying cells. A working solution of PI was made where, for each plate, 1 μL of 10 mM PI was added to 10 mL of CSM-ura (raffinose or galactose). The final PI solution (50 μL/well) was dispensed into each well of a new round bottom 96-well plate. The overnight 96-well assay plate was then mixed with a multichannel pipet and 50 μL transferred to the PI-containing plate. This plate was then incubated for 30 minutes at 30° C. in the dark. A benchtop flow cytometer (Miltenyi MACSquant) was then used to assess red fluorescence (B2 channel), forward scatter, and side scatter (with following settings: gentle mix, high flow rate, fast measurement, 10,000 events). Intensity histograms were then gated for “PI-positive” or “PI-negative” using the raffinose and galactose cultures treated with DMSO as controls. The DMSO controls for raffinose or galactose-containing cultures were used to determine the window of increased cell death and this difference set to 100. All compounds were similarly gated and then compared to this maximal window to establish the percent reduction in PI-positive cells.
Biochemical and Efficacy Assays. […]

FAB1 TDP-43 yeast strain = experiment: Propidium iodide viability assay, FAB1 TDP-43 yeast strain; format: cell-based; conditions: FAB1 TDP-43 yeast model
Description: as §1, §2, §3

[4] = ADP-Glo, full-length human GST-PIKFYVE, 10 μM to 3 nM, read-out: hPIKfyve IC50

Sequence of full-length human PIKFYVE (N-terminal GST-fusion) (Q9Y2I7 whole entry S696N/L932S/Q995L/T998S/S1033A/Q1183K, the tested form may be a part): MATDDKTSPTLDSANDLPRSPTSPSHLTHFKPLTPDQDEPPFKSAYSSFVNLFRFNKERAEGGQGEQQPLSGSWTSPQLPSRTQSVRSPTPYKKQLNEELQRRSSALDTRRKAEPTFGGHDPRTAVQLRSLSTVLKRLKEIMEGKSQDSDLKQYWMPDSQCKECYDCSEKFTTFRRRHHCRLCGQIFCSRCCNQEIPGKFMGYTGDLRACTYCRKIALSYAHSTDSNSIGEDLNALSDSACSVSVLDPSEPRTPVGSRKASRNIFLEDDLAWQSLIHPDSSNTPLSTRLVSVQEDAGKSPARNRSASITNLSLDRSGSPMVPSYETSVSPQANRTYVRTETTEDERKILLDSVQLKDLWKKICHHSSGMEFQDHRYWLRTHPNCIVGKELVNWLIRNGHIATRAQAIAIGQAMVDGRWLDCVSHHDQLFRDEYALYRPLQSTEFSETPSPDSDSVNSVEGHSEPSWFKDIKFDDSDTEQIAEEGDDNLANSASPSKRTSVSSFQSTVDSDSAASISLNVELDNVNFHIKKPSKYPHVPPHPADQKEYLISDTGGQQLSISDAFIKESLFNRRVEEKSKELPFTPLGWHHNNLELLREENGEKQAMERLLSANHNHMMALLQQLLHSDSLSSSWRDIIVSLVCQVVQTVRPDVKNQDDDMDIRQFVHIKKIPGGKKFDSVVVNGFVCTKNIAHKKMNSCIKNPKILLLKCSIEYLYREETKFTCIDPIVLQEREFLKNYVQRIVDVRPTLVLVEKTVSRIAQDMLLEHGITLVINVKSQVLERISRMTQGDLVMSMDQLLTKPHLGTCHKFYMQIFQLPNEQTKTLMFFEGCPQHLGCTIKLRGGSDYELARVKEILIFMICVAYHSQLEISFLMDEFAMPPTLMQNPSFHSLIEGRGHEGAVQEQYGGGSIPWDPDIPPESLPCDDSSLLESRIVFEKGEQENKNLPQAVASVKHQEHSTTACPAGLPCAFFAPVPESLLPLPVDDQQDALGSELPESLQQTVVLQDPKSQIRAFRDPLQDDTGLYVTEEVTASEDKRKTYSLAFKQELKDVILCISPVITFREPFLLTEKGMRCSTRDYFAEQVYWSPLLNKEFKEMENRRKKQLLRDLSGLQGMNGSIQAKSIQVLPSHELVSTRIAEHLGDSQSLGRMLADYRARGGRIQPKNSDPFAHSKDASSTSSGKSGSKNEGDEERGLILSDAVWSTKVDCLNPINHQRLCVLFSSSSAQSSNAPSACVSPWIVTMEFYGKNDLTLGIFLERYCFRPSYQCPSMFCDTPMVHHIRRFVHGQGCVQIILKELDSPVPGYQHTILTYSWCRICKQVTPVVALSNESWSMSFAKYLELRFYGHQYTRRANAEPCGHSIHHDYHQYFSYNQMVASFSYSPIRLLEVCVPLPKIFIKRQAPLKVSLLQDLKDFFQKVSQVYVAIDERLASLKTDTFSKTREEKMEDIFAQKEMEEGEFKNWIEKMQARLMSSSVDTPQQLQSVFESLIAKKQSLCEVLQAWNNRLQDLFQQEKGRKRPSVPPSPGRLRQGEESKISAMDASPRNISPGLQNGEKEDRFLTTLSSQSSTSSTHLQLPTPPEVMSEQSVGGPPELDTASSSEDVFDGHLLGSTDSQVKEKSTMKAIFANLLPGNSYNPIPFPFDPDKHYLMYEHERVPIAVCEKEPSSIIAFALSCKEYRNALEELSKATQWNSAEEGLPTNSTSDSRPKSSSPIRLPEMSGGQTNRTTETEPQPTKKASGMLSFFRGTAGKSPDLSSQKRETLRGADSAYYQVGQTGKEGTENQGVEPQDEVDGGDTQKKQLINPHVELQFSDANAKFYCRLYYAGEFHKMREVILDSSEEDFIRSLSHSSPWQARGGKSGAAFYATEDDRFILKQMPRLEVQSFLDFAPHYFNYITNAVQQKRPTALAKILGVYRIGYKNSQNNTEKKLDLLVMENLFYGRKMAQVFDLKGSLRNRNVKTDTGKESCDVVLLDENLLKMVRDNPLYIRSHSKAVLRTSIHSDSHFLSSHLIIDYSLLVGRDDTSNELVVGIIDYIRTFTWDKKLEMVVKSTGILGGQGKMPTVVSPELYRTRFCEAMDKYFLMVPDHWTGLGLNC
Sequence of PIKfyve (PIKFYVE-NanoLuc fusion in HEK293 cells) (Q9Y2I7 whole entry, the tested form may be a part): as the sequence (Q9Y2I7 whole entry S696N/L932S/Q995L/T998S/S1033A/Q1183K, the tested form may be a part) above, with N696S, S932L, L995Q, S998T, A1033S, K1183Q counted along it

SMILES | IC50 [1] | IC50 [2, 4] | PIKfyve TDP-43 (active/inactive) [3] | IC50 ([2]; ADP-Glo with full-length PIKfyve, read-out: PIKfyve IC50) | FAB1 TDP-43 (active/inactive) (FAB1 TDP-43 yeast strain)
Clc1nc(N2CCOCC2)nc2c1CCN2c1ccccc1 [Compound 1, 4-(4-chloro-7-phenyl-6,7-dihydro-5H-pyrrolo[2,3-d]pyrimidin-2-yl)morpholine] | 100 to 1000 nM | 100 to 1000 nM | – | – | –
c1ccc(N2CCc3c(OC4CCOCC4)nc(N4CCOCC4)nc32)cc1 [Compound 21, 4-(7-phenyl-4-((tetrahydro-2H-pyran-4-yl)oxy)-6,7-dihydro-5H-pyrrolo[2,3-d]pyrimidin-2-yl)morpholine] | 100 to 1000 nM | 100 to 1000 nM | – | – | –
Cc1cccc(/C=N/Nc2nc3c(c(N4CCOCC4)n2)N=C(c2ccncc2)C3C)c1 (stereo not shown) | – | – | Active | 4.9 nM | Inactive
CN(C)c1cc(N2CCOCC2)n2nc(-c3ccncc3)cc2n1 | – | – | Inactive | – | Inactive
Cc1cccc(/C=N/Nc2cc(N3CCOCC3)n3nc(-c4ccncc4)cc3n2)c1 [drawing 514] | – | – | Active | – | Inactive
c1ccc(-n2ncc3c(OCc4cccnc4)nc(N4CCOCC4)nc32)cc1 [Compound 132, 4-(1-phenyl-4-(pyridin-3-ylmethoxy)-1H-pyrazolo[3,4-d]pyrimidin-6-yl)morpholine] | 100 to 1000 nM | 10 to 100 nM | – | – | –
